Experimental data reported in paper PMC11434840, “Discovery of Benzopyrone-Based Candidates as Potential Antimicrobial and Photochemotherapeutic Agents through Inhibition of DNA Gyrase Enzyme B: Design, Synthesis, In Vitro and In Silico Evaluation” (Pharmaceuticals, 2024).
Read-outs that look alike come from different tables or passages of the source.

Columns and labels:
[1] = system: Escherichia coli ATCC 25922; test: Antimicrobial agar cup-plate assay, E. coli; assay type: cell-based; conditions: 0.1 mL of compound in DMF, overnight incubation, mean ± SD, at least three experiments
Protocol: (§1) The antimicrobial activity of all newly synthesized compounds was determined using the agar cup-plate method using the Hi-Media agar medium. Xanthotoxin, tobramycin, and amphotericin B were used as reference drugs. All newly synthesized compounds were tested against two strains of Gram-positive bacteria (Bacillus subtilis ATCC 14579 and Staphylococcus aureus ATCC 25923), Gram-negative bacteria (Escherichia coli ATCC 25922), and yeast (Candida albicans ATCC 10231).
(§2) The nutrient agar medium consists of 0.3% of beef extract, 0.5% of peptone, 0.1% dipotassium hydrogen phosphate, and 1.5% agar. Broth cultures of the organisms were prepared by incubating slant agar seeded with the organisms overnight.
(§3) The prepared broth culture (0.02 mL) was carefully added to sterile Petri dishes. Then, 10 mL of the liquefied nutrient agar medium was poured into each dish, mixed uniformly, and allowed to solidify. Using a sterilized cork borer, cups (9 mm) were scooped out of the agar media contained in the Petri dishes. Each test compound (50 mg) was dissolved in 1 mL DMF (50 mg mL^−1), which was used as a stock solution to carry out the twofold dilution technique. A fixed volume (0.1 mL) of the tested compounds dissolved in dimethylformamide (DMF) was added. Each plate contained a cup filled with DMF to disregard the effect of solvent. Additionally, two other cups were filled with tobramycin and xanthotoxin being used as reference drugs. The plates were incubated overnight to examine the antimicrobial activity. Zones of inhibition obtained by each test compound were measured in millimeters and the results are recorded in Table 2.
(§4) GraphPad Prism-version 5 (GraphPad Software, Inc., La Jolla, CA, USA) was used for statistical analysis.

[2] = system: Candida albicans ATCC 10231; test: Antimicrobial agar cup-plate assay, C. albicans; assay type: cell-based; parameters: key to Inhibition Zone (mm) C. albicans: -: no activity; conditions: 0.1 mL of compound in DMF, overnight incubation, mean ± SD, at least three experiments
Protocol: as §1, §2, §3, §4

[3] = system: Bacillus subtilis ATCC 14579; test: Photosensitizing assay (MIC before and after UV irradiation, agar cup-plate); assay type: cell-based; parameters: key to MIC (mg mL^−1) Control / MIC (mg mL^−1) Test / MIC (mM) Control / MIC (mM) Test: -: no activity; conditions: B. subtilis; for MIC: Bacillus subtilis, ATCC14579, light or radiation study
Protocol: The photosensitizing activity was determined using the agar cup-plate method (described in Section 2.3) with Hi-Media agar medium. The antibacterial activity against Bacillus subtilis ATCC 14579 was measured before and after exposure to UV lamp (365 nm). The diameters of the inhibition zones were measured in mm and the results were compared with xanthotoxin. The tested organism used was Bacillus subtilis.
For the photosensitizing activity, xanthotoxin was used as a reference drug and DMF as a negative control. The minimum inhibitory concentrations (MIC) were determined using the agar cup-plate method. Each test compound (50 mg) was dissolved in 1 mL DMF (50 mg mL^−1), which was used as a stock solution to carry out the twofold dilution technique. The sample size for all the compounds was adjusted to 0.1 mL. The solution of the test compound (0.1 mL) was added to the cups. The plates were divided into test plates and duplicate plates. Before irradiation, the test plates were incubated in the dark at 37 °C for 3 h to permit the diffusion of the tested compounds through the agar layer. The duplicate plates were incubated overnight and used as a control for the determination of the antibacterial activity. The covers were removed from the test plates, and the dishes were exposed to UV lamp (365 nm) for 20 min. After irradiation, the plates were left overnight in the dark at 37 °C. MIC, the least concentration preventing visible bacterial growth, was determined in both the control and test, indicating the antibacterial and photosensitizing activity of the tested compounds, respectively.
To evaluate the significance of the difference in the results, each experiment was repeated at least three times. […] GraphPad Prism-version 5 (GraphPad Software, Inc., La Jolla, CA, USA) was used to perform statistical analysis of the results.

[4] = system: Staphylococcus aureus ATCC 25923; test: Antimicrobial agar cup-plate assay, S. aureus; assay type: cell-based; parameters: key: -: no activity; conditions: 0.1 mL of compound in DMF, overnight incubation, mean ± SD, at least three experiments
Protocol: as §1, §2, §3, §4

[5] = system: Bacillus subtilis ATCC 14579; test: Antimicrobial agar cup-plate assay, B. subtilis; assay type: cell-based; parameters: key: -: no activity; conditions: 0.1 mL of compound in DMF, overnight incubation, mean ± SD, at least three experiments
Protocol: as §1, §2, §3, §4

[6] = 20 min, after irradiation with UV lamp (365 nm) for 20 min (photosensitizing activity), 100 μL per cup, read-out: MIC (mg mL^−1) Test
[7] = 20 min, after irradiation with UV lamp (365 nm) for 20 min (photosensitizing activity), read-out: MIC (mM) Test
[8] = without irradiation (antibacterial activity), 100 μL per cup, read-out: MIC (mg mL^−1) Control
[9] = without irradiation (antibacterial activity), read-out: MIC (mM) Control
[10] = after irradiation with UV lamp (365 nm) for 20 min (photosensitizing activity)
[11] = after irradiation with UV lamp (365 nm) for 20 min (photosensitizing activity), 100 μL per cup
[12] = without irradiation (antibacterial activity)
[13] = without irradiation (antibacterial activity), 100 μL per cup

Compound	Inhibition Zone (mm) E. coli [1] [mm]	Inhibition Zone (mm) C. albicans [2]	MIC [3, 6] [mg/L]	MIC [3, 7] [mM]	MIC [3, 8] [mg/L]	MIC [3, 9] [mM]	Inhibition Zone (mm) S. aureus [4]	melting point [°C]	Inhibition Zone (mm) B. subtilis [5]	MIC (mM) Test [3, 10]	MIC (mg mL^−1) Test [3, 11]	MIC (mM) Control [3, 12]	MIC (mg mL^−1) Control [3, 13]
CCc1cc2c(C)cc(=O)oc2c2c1oc1ccccc12 [Compound 6a, 6-Ethyl-4-methyl-2H-benzofuro[2,3-h]benzopyran-2-one]	23 ± 1.414	21 ± 0.8165 mm	390	1.4	3120	11.2	30 ± 1.414 mm	120 to 122	20 ± 1.414 mm				
CCc1cc2c(-c3ccccc3)cc(=O)oc2c2c1oc1ccccc12 [Compound 6b, 6-Ethyl-4-phenyl-2H-benzofuro[2,3-h]benzopyran-2-one]	17 ± 1.414	15 ± 1.414 mm	1500	4.41	3120	9.18	30 ± 1.414 mm	120 to 122	22 ± 1.414 mm				
CCc1cc2c(C)cc(=O)oc2cc1OCC(=O)c1ccccc1 [Compound 7a, 6-Ethyl-4-methyl-7-phenacyloxy-2H-1-benzopyran-2-one]	20 ± 0.8165	-	1500	4.65	6250	19.4	28 ± 1.414 mm	165 to 166	12 ± 1.414 mm				
CCc1cc2c(C)cc(=O)oc2cc1OCC(=O)c1ccc(C)cc1 [Compound 7b, 6-Ethyl-4-methyl-7-(4-methylphenacyloxy)-2H-1-benzopyran-2-one]	20 ± 1.414	-	190	0.56	1500	4.46	24 ± 1.414 mm	136 to 139	13 ± 1.414 mm				
CCc1cc2c(C)cc(=O)oc2cc1OCC(=O)c1ccc(OC)cc1 [Compound 7c, 6-Ethyl-4-methyl-7-(4-methoxyphenacyloxy)-2H-1-benzopyran-2-one]	15 ± 1.414	-	3120	8.87	12500	35.5	-	162 to 164	10 ± 1.414 mm				
CCc1cc2c(-c3ccccc3)cc(=O)oc2cc1OCC(=O)c1ccccc1 [Compound 7d, 6-Ethyl-7-phenacyloxy-4-phenyl-2H-1-benzopyran-2-one]	16 ± 1.414	-	6250	16.3	6250	16.3	-	153 to 155	9 ± 1.414 mm				
CCc1cc2c(-c3ccccc3)cc(=O)oc2cc1OCC(=O)c1ccc(C)cc1 [Compound 7e, 6-Ethyl-7-(4-methylphenacyloxy)-4-phenyl-2H-1-benzopyran-2-one]	20 ± 0.8165	-					-	225 to 226	-	-	-	-	- ^d
CCc1cc2c(-c3ccccc3)cc(=O)oc2cc1OCC(=O)c1ccc(OC)cc1 [Compound 7f, 6-Ethyl-7-(4-methoxyphenacyloxy)-4-phenyl-2H-1-benzopyran-2-one]	23 ± 0.8165	16 ± 0.8165 mm					-	183 to 185	-	-	-	-	-
CCc1cc2c(C)cc(=O)oc2c2c(-c3ccc(OC)cc3)coc12 [Compound 8c, 9-Ethyl-3-(4-methoxyphenyl)-7-methyl-5H-furo[2,3-h]benzopyran-5-one]	24 ± 1.414	-	97	0.29	780	2.33	20 ± 0.8165 mm	110 to 111	12 ± 1.414 mm				
CCc1cc2c(-c3ccccc3)cc(=O)oc2c2c(-c3ccc(C)cc3)coc12 [Compound 8e, 9-Ethyl-3-(4-methylphenyl)-7-phenyl-5H-furo[2,3-h]benzopyran-5-one]	25 ± 0.8165	-	97	0.25	390	1.03	22 ± 1.414 mm	80 to 81	20 ± 1.414 mm				
CCc1cc2c(-c3ccccc3)cc(=O)oc2c2c(-c3ccc(OC)cc3)coc12 [Compound 8f, 9-Ethyl-3-(4-methoxyphenyl)-7-phenyl-5H-furo[2,3-h]benzopyran-5-one]	18 ± 0.8165	-	3120	7.88	6250	15.8	20 ± 1.414 mm	150 to 153	14 ± 1.414 mm				
